Test results reported in ChEMBL document CHEMBL3507680, “University of Dundee, Gates Library screen for HepG2 cell viability”.

Experiment: Human HepG2 cell viability assay in 384 well format
Assay type: toxicity, cell-based
Parameters: dose 125 nL, time 70.5 hour; cytotoxicity at 70.5 h: concentration not given beside the values
Details: HepG2 cells, read-out: Inhibition

Structure (SMILES) | cytotoxicity at 70.5 h
CC(c1ccco1)N(C)Cc1cccc(C(=O)Nc2nccn2C)c1 (configuration not stated) | -5.04%
Cc1cc(-c2cnc(N3CCCC(C)C3)nc2C(C)C)on1 (configuration not stated) | 18.8%
CNC(=O)N1CC[C@@H]2CN(Cc3cccc(OC)c3)S(=O)(=O)[C@@H]2CC1 | -11.1%
CC(C)(CNC(=O)c1ccc(Cl)o1)NC(=O)OC(C)(C)C | 22.2%
CCOCC1CN(C(=O)Cc2ccccn2)Cc2cnn(CC)c21 (configuration not stated) | 10.8%
Cn1cc(C(=O)NCC2CCN(C(=O)NC3CC3)CC2)cn1 | -19.1%
CC(C)OCc1ncn2c1CN(CC1CC1)CCC2 | 20.2%
c1ccc(CO[C@H]2CO[C@@]3(CCCN(Cc4ccncc4)C3)C2)nc1 | -16.2%
COCCNC(=O)[C@H]1C[C@@H]2CCN(Cc3ccoc3)C[C@H]2O1 | -15.5%
CCOCC1CN(Cc2cnn(C)c2)Cc2nn(C)cc21 (configuration not stated) | 2.42%
Cc1nc(C)n(CC2CCCN2Cc2nc(C)c3ccccc3n2)n1 (configuration not stated) | -7.3%
CCc1cnc(CNc2ccc(C(=O)NCc3ccco3)cc2C)o1 | -8.92%
Cc1noc(C)c1CC(=O)N[C@@H]1CC[C@@H](Oc2ccccc2)[C@@H]1O | -3.35%
O=C1CCCCN1Cc1cccc(OC(F)F)c1 | 4.41%
CC(C)(C)c1nc(CN(CCC2CCCCC2)CC(N)=O)no1 | 22.6%
CC(C)c1cc(NCC(O)c2ccncc2)n2nccc2n1 (configuration not stated) | 14.4%
Cn1c(=O)oc2cc(Nc3ncc(C#N)cc3Cl)ccc21 | -4.36%
CCCC(=O)Nc1cc2c(cc1OC)NC(=O)CC2c1ccc(CC)o1 (configuration not stated) | 22.1%
Cc1noc(C)c1CN1C[C@H](C)[C@]2(CCN(Cc3cccnc3)C2=O)C1 | -8.9%
O=C(c1cocn1)N1C[C@H]2CCC[C@@]2(COc2ccccn2)C1 | 8.39%
CC(C)CCN1CC2(CCCN(C(=O)c3cscn3)C2)CCC1=O (configuration not stated) | -8.72%
Cc1noc(C)c1CN(C)C(=O)C1(N)CCCCC1 | -2.97%
Cc1noc(C2CCN(C(C)c3nc(C(C)(C)C)no3)CC2)n1 (configuration not stated) | -14.9%

Structure (SMILES) | cytotoxicity at 70.5 h
Cc1noc(C)c1CC(=O)NCCN1CCN(S(C)(=O)=O)CC1 | 0.0227%
Cc1ncsc1CCN(C)C1CCN(c2ncnc3[nH]cnc23)CC1 | -6.66%
FC(F)(F)Cn1ccnc1CNCC1CCCN1c1cccnn1 (configuration not stated) | -13.2%
CO[C@H]1CCN(Cc2c(C)noc2C)[C@@H]2CN(Cc3cccnc3)C[C@H]12 | -7.23%
O=C(NCCc1ccccn1)[C@@]12CCO[C@@H]1CCN(CC1CC1)C2 | -5.28%
CN(C)C(=O)N1C[C@@H]2CC[C@H](C1)N(S(=O)(=O)c1cccnc1)C2 | -9.57%
Cc1nn(C)cc1S(=O)(=O)N(C)[C@@H]1CCC[C@@H](n2ccnc2)[C@@H]1O | 19.1%
Cc1ccc(C(=O)NC2CCN(C)CC2)cc1N(C)S(C)(=O)=O | -6.98%
CCc1cn[nH]c1C1CCCN(C(=O)c2noc(C)c2COC)C1 (configuration not stated) | -10.2%
CN(C)CCO[C@@H]1CC[C@H]2[C@H]1OCCN2C(=O)COc1ccccc1 | -16.3%
CC(C)COC(C)C(=O)NCCNS(C)(=O)=O (configuration not stated) | -7.36%
COc1ncnc(N)c1CNCCc1ccc(-n2cccn2)cc1 | -1.5%
N#Cc1ccc(S(=O)(=O)Nc2cnn(C3CCOCC3)c2)cc1 | -1.54%
CNC(=O)[C@@H]1C[C@@H](N)CN1C(=O)CCSCc1ccccc1 | -4.11%
O[C@H]1Cc2ccccc2[C@H]1n1ccnc1-c1cc2n(n1)CCNC2 | -2.39%
Cc1nc(N2CCCC2)nc2c1CCN(C(=O)C(C)C)CC2 | -15.8%
O=C1C[C@H]2[C@@H](CCN2C(=O)Cc2cccs2)N1Cc1ccncc1 | 27.8%
COCC(=O)N1CCn2c(Cn3cncn3)cnc2C1C (configuration not stated) | -6.96%
COCCOCCNC(=O)N1CCc2c(F)ccc(F)c2C1 | 2.28%
Cn1nc(C#N)c2c1CN(C(=O)c1ccsc1)CCC2 | 5.67%
CC(C)CCNC(=O)c1c(-n2cnnn2)sc2c1CCCC2 | -0.216%
CC(C)Nc1nc2c(cc1C(=O)NCC1CC1)CCNCC2 | -10%
CCC(=O)N1CCC2(CC1)CNC(=O)c1cc(C)ccc1O2 | -1.62%

Structure (SMILES) | cytotoxicity at 70.5 h
Cn1c(C(F)(F)F)nn(CCNC(=O)c2nc3ccccc3s2)c1=O | -8.57%
O=C(NCc1cncc2c1CCN(Cc1ccccc1)C2)C1CC1 | 9.59%
c1ccc(CN2CCN(C3CCOC4(CCOCC4)C3)CC2)nc1 (configuration not stated) | -16.9%
Cc1cnc(C(=O)N2CCCCC2c2nc(C)cs2)cn1 (configuration not stated) | -0.288%
CCS(=O)(=O)c1ncc(CN(C)Cc2cccc(OC)c2)n1CCOC | -6.87%
O=C(O)c1ccnc2c(Br)cccc12 | -3.81%
Cc1cnn(CC2CN(Cc3ccccn3)CCO2)c1 (configuration not stated) | -5.81%
Cn1ccc(C(=O)N2CCCC2c2[nH]ncc2C(N)=O)n1 (configuration not stated) | -4.61%
CN(Cc1ccsc1)C(=O)c1ccc(S(=O)(=O)NC(C)(C)C)cc1 | -7.83%
Cc1nc(-c2ccccc2)ccc1C(=O)N1CCN(CCO)CC1 | -1.89%
Fc1cnc(N2CCCC3(CCN(Cc4ccoc4)C3)C2)nc1 (configuration not stated) | 11.2%
Cc1noc(C)c1C(=O)N1CCCC1(C)C(=O)NC1CCCC1 (configuration not stated) | -10.2%
Cn1nc(C#N)c2c1CN(C(=O)c1ccco1)CCC2 | 14.2%
CC(C)n1nc(CNc2ncccn2)c2c1CN(C1CCOCC1)CC2 | -17.3%
CN(C)CCn1ccc2ccc(NC(=O)c3ccncc3F)cc21 | -6.52%
CCN1CCN(C(=O)c2csnn2)c2ccccc21 | 9.42%
CN(Cc1ccc(-n2ccnc2)cc1)CC1CCCN1c1cccnn1 (configuration not stated) | 23%
CCOc1ccc(N2CCC(C(O)c3ccccc3)CC2)nn1 (configuration not stated) | 51.9%
COCCCNc1cc(C)nn2cnnc12 | -4.69%
CN(C)C(CNS(=O)(=O)c1cc(F)ccc1F)c1cccn1C (configuration not stated) | -11.3%
CCOc1ncccc1C(=O)NC1CC(=O)N(CC(F)(F)F)C1 (configuration not stated) | -6.92%
COCC(=O)NCCCn1ncc2c(C)cccc21 | -5.2%
CC(C)(C)n1cc(CNC2CCN(C(=O)c3ccoc3)CC2)cn1 | -1.77%

Structure (SMILES) | cytotoxicity at 70.5 h
CC1CCCN(C(=O)c2cn(-c3ccc(C(F)(F)F)cn3)nn2)C1 (configuration not stated) | 12.2%
COc1ccc(C(=O)CN(C2=NCCCCC2)c2ccccc2)cc1 | -25.8%
COc1ccc(N2CCNC(C(N)=O)C2)cc1 (configuration not stated) | 18.6%
CC(C)n1[nH]c(=O)c2c1NC(=O)CSC2C1CCCCC1 (configuration not stated) | 9.25%
CN1CCOC[C@H]1c1nc(-c2ccc(F)cc2F)c[nH]1 | -0.919%
Cn1c(NCC(O)c2ccc(F)cc2F)c(C#N)c(=O)n(C)c1=O (configuration not stated) | -5.92%
N#Cc1cccc(N2CCCC3(CN(C(=O)NC4CC4)CCO3)C2)c1 (configuration not stated) | -1.09%
O=C([C@@H]1CN(Cc2nccs2)C[C@H]2OCC[C@H]21)N1CCOCC1 | -7.1%
Cn1nc(CN2CCOCC2)c2c1CN(Cc1ccsc1)C2 | -5.85%
Cc1cnn(-c2ccc(S(=O)(=O)N(C)CC(C)(CO)CO)cc2F)c1 | 17.1%
CNC(=O)N1CCc2cc(C(=O)NCC3CC3)c(NC(C)C)nc2CC1 | -7.34%
C[C@H]1C[C@@H]2CCN(Cc3ccccn3)C[C@H]2O1 | -0.0314%
CN(Cc1cccc(F)c1)Cc1nc2c(cnn2C)c(=O)[nH]1 | 5.31%
Cc1ccc2[nH]c(CO[C@H]3CN(c4ccc(C#N)cn4)C[C@H]3F)nc2c1 | -3.04%
Cn1nccc1C(=O)N1Cc2cc(Cl)ccc2OC2(CCOCC2)C1 | 2.41%
CC(C)Cc1noc(CN2CCN(CCOc3ccc(Cl)cc3)CC2)n1 | -10.1%
CCN1CCN(C(=O)c2ccc3c(c2)NC(=O)CN3)[C@H]2CS(=O)(=O)C[C@H]21 | -8.61%
COc1cccc(-c2cc(C(=O)NCCCn3nc(C)cc3C)[nH]n2)c1 | -1.83%
CCOCc1cncc2c1CCN(S(=O)(=O)c1ccccc1)C2 | -3.1%
CCn1nnc2c1C(COC)CN(C(=O)Cc1ccccn1)C2 (configuration not stated) | -15.3%
CNC(C(=O)OC)c1cc(F)ccc1F (configuration not stated) | -3.37%
c1csc(N2CCN(c3nccn4cnnc34)CC2)n1 | -3.57%
c1cnn(CC2CN(CC3CCCCC3)CCO2)c1 (configuration not stated) | -0.377%

Structure (SMILES) | cytotoxicity at 70.5 h
O=C(NC1(C(=O)O)CCCC1)C1Cc2cc(F)ccc2O1 (configuration not stated) | 0.608%
COc1cc(C2C3=C(COC3=O)Nc3[nH]nc(C)c32)cc2c1OCO2 (configuration not stated) | 9.37%
CCN(CC1CCCO1)C(=O)Nc1cc(C(N)=O)ccc1OC (configuration not stated) | -5.25%
CC(=O)N1CCOC(c2cncc(CCC(=O)N(C)C)n2)C1 (configuration not stated) | 5%
Cc1ccc(-n2nnc(C(=O)NCC3CCCCC3)n2)cc1 | -7.05%
Cc1n[nH]c(C)c1NC(=O)CN1CCCC(CNC(=O)C(C)(C)C)C1 (configuration not stated) | 2.09%
Cc1ccc(S(=O)(=O)NC(=O)c2cccc(OCC(N)=O)c2)s1 | -3.78%
COc1ccc(CN2CCc3ncnc(C4CC4)c3CC2)cc1 | 1.6%
O=C(C1CCC1)N1CCn2c(COc3ncccn3)nnc2C1 | 1.54%
CC(CNC(=O)N1CCN(c2ncccn2)CC1)Cc1cccs1 (configuration not stated) | 17.5%
CC1(C)CC(N(Cc2cccnc2)Cc2cccc(F)c2)CC(C)(C)N1 | 2.01%
O=C(c1cc(F)ccc1F)C1CCN(C(=O)c2cccnc2O)CC1 | -16.4%
Cn1c(CNc2c(F)cccc2-n2cccn2)cc(=O)n(C)c1=O | 0.334%
c1cn(-c2ccc(CN3CCOC(Cn4cncn4)C3)cc2)cn1 (configuration not stated) | -7.67%
CCOC(C(=O)N1CCn2c(C)nnc2C1)c1ccccc1 (configuration not stated) | -11.7%
O=C(COCC(F)(F)C(F)F)N1CCC2(CCCN(CC3CC3)C2=O)C1 (configuration not stated) | -8.88%
CCc1n[nH]c(C2CN(C(=O)c3cc4c(s3)CCCC4)CCO2)n1 (configuration not stated) | 4.71%
Cc1nnc2n1CCN(Cc1nc3ccccc3o1)C2 | -3.32%
Cc1nc2c(c(N3C[C@@H](C)[C@@](C)(O)C3)n1)CCC2 | 22.5%
CCc1nc(C)sc1CN1CC[C@@](O)(C2CCOCC2)[C@H](C)C1 | -12.2%
